The target of experiment [1] is T1, glucosylceramide synthase (Homo sapiens, UniProt Q16739).
T1 construct: Microsomes were isolated from A375 human melanoma cells; endogenous in cells; host or cells: A375 human melanoma cells (microsomal fraction, 100,000 g pellet)
T1 sequence (Q16739 1-394): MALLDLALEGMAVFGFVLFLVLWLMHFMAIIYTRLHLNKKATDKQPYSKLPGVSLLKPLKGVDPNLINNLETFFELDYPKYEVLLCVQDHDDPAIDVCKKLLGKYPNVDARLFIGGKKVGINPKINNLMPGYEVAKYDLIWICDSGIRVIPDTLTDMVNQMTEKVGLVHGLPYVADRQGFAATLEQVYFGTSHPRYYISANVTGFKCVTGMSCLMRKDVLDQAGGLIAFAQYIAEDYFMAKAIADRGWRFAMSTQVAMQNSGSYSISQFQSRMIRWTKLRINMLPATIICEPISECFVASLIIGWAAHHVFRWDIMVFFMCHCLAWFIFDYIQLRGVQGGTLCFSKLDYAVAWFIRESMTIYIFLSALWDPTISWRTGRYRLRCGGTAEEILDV
Briefly: microsomal assay measuring conversion of ceramide to glucosylceramide by HPLC (GCS IC50). The class given is biochemical. Conditions: concentration causing 50% inhibition of glucosylceramide synthase activity. In short, it runs like this:
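IC50 is the compound concentration halving glucosylceramide synthase activity. Activity was measured in microsomes, with HPLC quantifying glucosylceramide formed from ceramide.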

Experiment [2] has as its system GM3 expression on the cell surface, B16 mouse melanoma cells. Briefly: cell based phenotypic assay, cell surface GM3 by antibody mediated immunofluorescence, B16 (GM3 B16 IC50). The note with it: Mus musculus, 50% inhibition of GM3 expression on the cell surface. In short, it runs like this:
(§1)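 Both lines undergo the phenotypic GM3 assay, and viability is recorded from that same cell-based run.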

Experiment [3] concerns GM3 expression on the cell surface, C32 human melanoma cells. Briefly: cell based phenotypic assay, cell surface GM3 by antibody mediated immunofluorescence, C32 (GM3 C32 IC50). The note with it: Homo sapiens, 50% inhibition of GM3 expression on the cell surface. In short, it runs like this:
as §1

The next experiment relates to B16 mouse melanoma cells. Briefly: cell viability in the B16 cell-based assay (Viability, B16 IC50). Conditions: Mus musculus. In short, it runs like this:
(§2)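 Viability readouts were run alongside the GM3 cell-surface assay in the same B16 and C32 cultures. A figure above 10 indicates no cell death.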

A further experiment deals with C32 human melanoma cells. The experiment can be described thus: cell viability in the C32 cell-based assay (Viability, C32 IC50). Conditions: Homo sapiens, concentration causing 50% cell death, values greater than 10 represent a lack of cell death. The procedure, abridged: as §2
[4] abbreviates: B16 mouse melanoma cells, read-out: GM3 B16 IC50.
Where [5] appears, read: C32 human melanoma cells, read-out: GM3 C32 IC50.
[6] abbreviates: B16, B16 cells, concentration causing 50% cell death, values greater than 10 represent a lack of cell death, read-out: Viability, B16 IC50.
Setting [7] is: C32, C32 cells, read-out: Viability, C32 IC50.
[8] abbreviates: read-out: GM3 B16 IC50, B16 mouse melanoma cells.
Setting [9] is: read-out: GM3 C32 IC50, C32 human melanoma cells.
Setting [10] is: B16, read-out: Viability, B16 IC50.
The mark [11] stands for this setting: C32, read-out: Viability, C32 IC50, C32 cells.

Consider nine compounds from US12060349B2, “Glucosylceramide synthase inhibitors” (Genzyme Corporation, priority 2012, dated 2024).

pIC50: −log10 of the molar value. Read-outs that look alike come from different tables or passages of the source.

Broadly, the pIC50 is the negative decadic logarithm of the IC50, by convention in mol/L.

`CNC(=O)c1ccc(-c2ccc(C(C)(C)NC(=O)N3CCN4CCC3CC4)cc2)cc1` [Example 256, N-(2-(4′-(Methylcarbamoyl)biphenyl-4-yl)propan-2-yl)-1,4-diazabicyclo[3.2.2]nonane-4-carboxamide]: the pIC50 in experiment [1] is 4.91; in experiment [2] (setting [4]), 5.35; in experiment [3] (setting [5]), 6.14; with B16 mouse melanoma cells (setting [6]), no more than 5.00; in the experiment with C32 human melanoma cells (setting [7]), no more than 5.00.
As for `CN(C)C(=O)c1ccc(-c2ccc(C(C)(C)NC(=O)OC3CN4CCC3CC4)cc2)cc1` (stereo not drawn) [Example 257, Quinuclidin-3-yl 2-(4′-(dimethylcarbamoyl)biphenyl-4-yl)propan-2-ylcarbamate], the pIC50 was 6.44 in experiment [1]; 6.10 in experiment [2] (setting [8]); 7.11 in experiment [3] (setting [9]); no more than 5.00 in the experiment with B16 mouse melanoma cells (setting [10]); no more than 5.00 in the experiment on C32 human melanoma cells (setting [11]).
For the compound `CN(C)C(=O)c1ccc(-c2ccc(C(C)(C)NC(=O)NC3(C)CN4CCC3CC4)cc2)cc1` (stereo not drawn) [Example 258, N,N-Dimethyl-4′-(2-(3-(3-methylquinuclidin-3-yl)ureido)propan-2-yl)biphenyl-4-carboxamide], the pIC50 is 6.55 in experiment [1]; 5.63 in experiment [2] (setting [4]); 7.31 in experiment [3] (setting [5]); no more than 5.00 with B16 mouse melanoma cells (setting [6]); no more than 5.00 with C32 human melanoma cells (setting [7]).
In the case of `CN(C)C(=O)c1ccc(-c2ccc(C(C)(C)NC(=O)OC3CCN4CCC3CC4)cc2)cc1` (stereo not drawn) [Example 259, 1-Azabicyclo[3.2.2]nonan-4-yl 2-(4′-(dimethylcarbamoyl)biphenyl-4-yl)propan-2-ylcarbamate], the pIC50 in experiment [1] was 6.87; in experiment [2] (setting [4]), 6.75; in experiment [3] (setting [5]), 7.69; in the experiment with B16 mouse melanoma cells (setting [6]), no more than 5.00; in the experiment with C32 human melanoma cells (setting [7]) it was no more than 5.00.
With `CN(C)C(=O)c1ccc(-c2ccc(C(C)(C)NC(=O)N3CCN4CCC3CC4)cc2)cc1` [Example 260, N-(2-(4′-(Dimethylcarbamoyl)biphenyl-4-yl)propan-2-yl)-1,4-diazabicyclo[3.2.2]nonane-4-carboxamide], the negative-log IC50 (pIC50) is 5.07 in experiment [1]; 5.79 in experiment [2] (setting [4]); 6.52 in experiment [3] (setting [5]); no more than 5.00 in the experiment on B16 mouse melanoma cells (setting [6]); no more than 5.00 with C32 human melanoma cells (setting [7]).
In the case of `CN(C)C(=O)c1ccc(-c2ccc(C(C)(C)NC(=O)NC3(C)CCN4CCC3CC4)cc2)cc1` (stereo not drawn) [Example 261, N,N-Dimethyl-4′-(2-(3-(4-methyl-1-azabicyclo[3.2.2]nonan-4-yl)ureido)propan-2-yl)biphenyl-4-carboxamide], the pIC50 in experiment [1] was 7.22; in experiment [2] (setting [4]) it was 6.45; in experiment [3] (setting [5]) it was 7.85; with B16 mouse melanoma cells (setting [6]), no more than 5.00; in the experiment on C32 human melanoma cells (setting [7]), 5.50.
`CC(C)(NC(=O)OC1CN2CCC1CC2)c1ccc(-c2ccc(C(=O)N3CCCCC3)cc2)cc1` (stereo not drawn) [Example 262, Quinuclidin-3-yl 2-(4′-(piperidine-1-carbonyl)biphenyl-4-yl)propan-2-ylcarbamate]: the pIC50 in experiment [1] was 7.71; in experiment [2] (setting [8]), 6.95; in experiment [3] (setting [9]), 8.46; in the experiment on B16 mouse melanoma cells (setting [10]) it was no more than 5.00; with C32 human melanoma cells (setting [11]) it was 6.00.
Consider `CC(C)(NC(=O)OC1CCN2CCC1CC2)c1ccc(-c2ccc(C(=O)N3CCCCC3)cc2)cc1` (stereo not drawn) [Example 263, 1-Azabicyclo[3.2.2]nonan-4-yl 2-(4′-(piperidine-1-carbonyl)biphenyl-4-yl)propan-2-ylcarbamate], for which the pIC50 in experiment [1] is 7.84; in experiment [2] (setting [4]) it was 7.12; in experiment [3] (setting [5]) it was 8.52; in the experiment with B16 mouse melanoma cells (setting [6]), no more than 5.00; with C32 human melanoma cells (setting [7]), 6.00.
As to `CCC1(NC(=O)NC(C)(C)c2ccc(-c3ccc(C(=O)N4CCCCC4)cc3)cc2)CN2CCC1CC2` (stereo not drawn) [Example 264, 1-(3-Ethylquinuclidin-3-yl)-3-(2-(4′-(piperidine-1-carbonyl)biphenyl-4-yl)propan-2-yl)urea], the pIC50 in experiment [1] was 7.86; in experiment [2] (setting [4]), 7.17; in experiment [3] (setting [5]), 8.67; with B16 mouse melanoma cells (setting [6]) it was no more than 5.00; in the experiment with C32 human melanoma cells (setting [7]) it was 6.00.
